From US20220409629A1, “BENZODIAZEPINE DERIVATIVES FOR TREATING A RESPIRATORY SYNCYTIAL VIRUS (RSV) INFECTION” (priority 2019, published 2022)

Legend:
RSV A2 = experiment: RSV plaque reduction assay; format: cell-based, respiratory syncytial virus (RSV); details: human respiratory syncytial virus, HepG2; Hep-G2 cells, RSV A2, mean of at least two experiments
Protocol: Compounds were subjected to RSV plaque reduction assays according to the following protocol.
Hep-G2 cells (ECACC, 85011430) were passaged in flasks and seeded in 24-well plates in DMEM containing antibiotics and supplemented with 10% FBS. During inoculation and subsequent incubation, cells were cultured in DMEM containing 2% FBS. 100 plaque forming unit/well of RSV (RSV A2 ECACC, 0709161v) was mixed with eight serial dilutions of compound. Subsequently, 100 μL of the virus/compound mixtures was added to confluent Hep-G2 cell monolayers. The cells and virus/compound mixtures were incubated at 37° C. in a humidified 5% CO2 incubator for 2 h prior to removal of the inoculum and addition of 1 mL of overlay (DMEM containing 2% FBS and 0.8% CMC) containing compound dilutions. The cells and were incubated at 37° C. in a humidified 5% CO2 incubator for 2 days.
Cells were washed with PBS before adding 75/25% v/v EtOH/MeOH, for 3 min. Fixative was removed and plates were washed with PBS. A pre-titrated amount of the primary antibody was added in 200 μL PBS/2% milk powder, and plates incubated for 90 min at 37° C. The plates were washed 3 times with PBS/0.05% Tween20 before addition of rabbit anti-goat horse radish peroxidase in 200 μL PBS/2% milk powder, and incubated for 1 h at 37° C. Following three wash steps with PBS/0.05% Tween20, 200 μL ready-to-use TrueBlue was added and plates were incubated at rt for 10-15 min before washing with water. After removal of water, plates were air-dried in the dark.
Plates were scanned and analysed using the Immunospot S6 Macro analyser, which is equipped with BioSpot analysis software for counting immunostained plaques (virospots). Plaque counts were used to calculate % infection relative to the mean of the plaque count in the virus control wells for RSV. The EC50 value was calculated as 50% reduction in signal, respectively, by interpolation of inhibition curves fitted with a 4-parameter nonlinear regression with a variable slope in Dotmatics. Plaque EC50 and cell toxicity CC50 values are a mean of at least two experiments and figures are rounded to whole units.

[1] = Liver microsomal stability, rat; format: in vitro ADME; details: pH 7.4; rat liver microsomes, 0.5 mg/mL protein, 1 μM compound, NADPH; >80% remaining at 45 min denoted >140; read-out: Liver Microsomal Stability: t1/2 (min); rat
Protocol: (§1) Compounds were subjected to the following assays to investigate liver microsomal stability, permeability and plasma protein binding.
(§2) Pooled liver microsomes were purchased from a reputable commercial supplier and stored at −80° C. prior to use. Microsomes (final protein concentration 0.5 mg/mL), 0.1 M phosphate buffer pH 7.4 and test compound (final substrate concentration 1 μM; final DMSO concentration 0.25%) were pre-incubated at 37° C. prior to the addition of NADPH (final concentration 1 mM) to initiate the reaction. The final incubation volume was 50 μL. A control incubation was included for each compound tested where 0.1 M phosphate buffer pH 7.4 was added instead of NADPH (minus NADPH). Two control compounds were included with each species. All incubations were performed singularly for each test compound. Each compound was incubated for 0, 5, 15, 30 and 45 min. The control (minus NADPH) was incubated for 45 min only. The reactions were stopped by transferring incubate into acetonitrile at the appropriate time points, in a 1:3 ratio. The termination plates are centrifuged at 3,000 rpm for 20 min at 4° C. to precipitate the protein. Following protein precipitation, the sample supernatants were combined in cassettes of up to 4 compounds, internal standard added, and samples analysed by LC-MS/MS. From a plot of ln peak area ratio (compound peak area/internal standard peak area) against time, the gradient of the line was determined. Subsequently, half-life (t1/2) and intrinsic clearance (CLint) were calculated.

Cell cytotoxicity CC50 = format: cell-based; details: human; mean of at least two experiments
[2] = Liver microsomal stability, dog; format: in vitro ADME; details: pH 7.4; dog liver microsomes, 0.5 mg/mL protein, 1 μM compound, NADPH; >80% remaining at 45 min denoted >140; read-out: Liver Microsomal Stability: t1/2 (min); dog
Protocol: as §1, §2

[3] = Liver microsomal stability, human; format: in vitro ADME; details: pH 7.4; human liver microsomes, 0.5 mg/mL protein, 1 μM compound, NADPH; >80% remaining at 45 min denoted >140; read-out: Liver Microsomal Stability: t1/2 (min); human
Protocol: as §1, §2

Row | SMILES | EC50 (RSV A2) | half-life [1] | CC50 (Cell cytotoxicity CC50) | half-life [2] | half-life [3]
1 | CCNc1cnc(-c2c(C(=O)N[C@H]3N=C(c4ccccc4)c4cccc(F)c4NC3=O)cnn2CC)c(F)c1 [Example 13, 1-Ethyl-5-[5-(ethylamino)-3-fluoropyridin-2-yl]-N-[(3S)-9-fluoro-2-oxo-5-phenyl-1,3-dihydro-1,4-benzodiazepin-3-yl]pyrazole-4-carboxamide] | 68 nM | 9.6 min | > 25000 nM | 35.6 min | 42.9 min
2 | CCNc1ccc(-c2c(C(=O)N[C@H]3N=C(c4ccccc4)c4ccccc4NC3=O)cnn2C2CC2)c(F)n1 [Example 14, 1-Cyclopropyl-5-[6-(ethylamino)-2-fluoropyridin-3-yl]-N-[(3S)-2-oxo-5-phenyl-1,3-dihydro-1,4-benzodiazepin-3-yl]pyrazole-4-carboxamide] | 95 nM | 37.9 min | > 25000 nM | 59.3 min | 93.7 min
3 | O=C(N[C@H]1N=C(c2ccccc2)c2ccccc2NC1=O)c1cnn(C2CC2)c1-c1ccc(NC2CC2)nc1F [Example 15, 1-Cyclopropyl-5-[6-(cyclopropylamino)-2-fluoropyridin-3-yl]-N-[(3S)-2-oxo-5-phenyl-1,3-dihydro-1,4-benzodiazepin-3-yl]pyrazole-4-carboxamide] | 51 nM | 69.8 min | > 25000 nM | 57.7 min | 72.3 min
4 | CC(C)n1ncc(C(=O)N[C@H]2N=C(c3ccccc3)c3ccccc3NC2=O)c1-c1ccc(NC2CC2)nc1F [Example 16, 5-[6-(Cyclopropylamino)-2-fluoropyridin-3-yl]-N-[(3S)-2-oxo-5-phenyl-1,3-dihydro-1,4-benzodiazepin-3-yl]-1-propan-2-ylpyrazole-4-carboxamide] | 50 nM | 72.7 min | > 25000 nM | 22.2 min | 50.6 min
5 | CCn1ncc(C(=O)N[C@H]2N=C(c3ccccc3)c3cccc(F)c3NC2=O)c1-c1ncc(NC(C)C)cc1F [Example 17, 1-Ethyl-N-[(3S)-9-fluoro-2-oxo-5-phenyl-1,3-dihydro-1,4-benzodiazepin-3-yl]-5-[3-fluoro-5-(propan-2-ylamino)pyridin-2-yl]pyrazole-4-carboxamide] | 52 nM | 318 min | > 25000 nM | 68.9 min | 120 min
6 | O=C(N[C@H]1N=C(c2ccccc2)c2ccccc2NC1=O)c1cnn(C2COC2)c1-c1ccc(NC2CC2)nc1F [Example 18, 5-[6-(Cyclopropylamino)-2-fluoropyridin-3-yl]-1-(oxetan-3-yl)-N-[(3S)-2-oxo-5-phenyl-1,3-dihydro-1,4-benzodiazepin-3-yl]pyrazole-4-carboxamide] | 83 nM | 93.5 min | > 25000 nM | 149 min | 144 min
7 | CCCNc1ccc(-c2nn(CC)cc2C(=O)N[C@H]2N=C(c3ccccc3)c3ccccc3NC2=O)c(F)n1 [Example 27, 1-Ethyl-3-[2-fluoro-6-(propylamino)pyridin-3-yl]-N-[(3S)-2-oxo-5-phenyl-1,3-dihydro-1,4-benzodiazepin-3-yl]pyrazole-4-carboxamide] | 57 nM | 23.9 min | > 25000 nM | 12.6 min | 43.1 min
8 | CCCNc1ccc(-c2nn(CC)cc2C(=O)N[C@H]2N=C(c3ccccc3)c3cccc(F)c3NC2=O)c(F)n1 [Example 28, 1-Ethyl-N-[(3S)-9-fluoro-2-oxo-5-phenyl-1,3-dihydro-1,4-benzodiazepin-3-yl]-3-[2-fluoro-6-(propylamino)pyridin-3-yl]pyrazole-4-carboxamide] | 39 nM | 22.7 min | > 25000 nM | 30.8 min | 41 min
9 | CC(C)(C)n1cc(C(=O)N[C@H]2N=C(c3ccccc3)c3ccccc3NC2=O)c(-c2ccc(NC3CC3)nc2F)n1 [Example 29, 1-tert-butyl-3-[6-(cyclopropylamino)-2-fluoropyridin-3-yl]-N-[(3S)-2-oxo-5-phenyl-1,3-dihydro-1,4-benzodiazepin-3-yl]pyrazole-4-carboxamide] | 54 nM | 45.2 min | > 25000 nM | 44 min | 73.9 min
10 | O=C(N[C@H]1N=C(c2ccccc2)c2ccccc2NC1=O)c1cn(C2CCOCC2)nc1-c1ccc(NC2CC2)nc1F [Example 31, 3-[6-(Cyclopropylamino)-2-fluoropyridin-3-yl]-1-(oxan-4-yl)-N-[(3S)-2-oxo-5-phenyl-1,3-dihydro-1,4-benzodiazepin-3-yl]pyrazole-4-carboxamide] | 55 nM | 36.3 min | > 25000 nM | 65.7 min | 116 min
11 | O=C(N[C@H]1N=C(c2ccccc2)c2cccc(F)c2NC1=O)c1cn(CC(F)(F)F)nc1-c1ccc(NC2CC2)nc1F [Example 33, 3-[6-(Cyclopropylamino)-2-fluoropyridin-3-yl]-N-[(3S)-9-fluoro-2-oxo-5-phenyl-2,3-dihydro-1H-1,4-benzodiazepin-3-yl]-1-(2,2,2-trifluoroethyl)-1H-pyrazole-4-carboxamide] | 80 nM | 56 min | > 25000 nM | 81 min | 80.3 min
12 | O=C(N[C@H]1N=C(c2ccccc2)c2ccccc2NC1=O)c1cn(C2CCC(F)(F)CC2)nc1-c1ccc(NC2CC2)nc1F [Example 34, 3-[6-(Cyclopropylamino)-2-fluoropyridin-3-yl]-1-(4,4-difluorocyclohexyl)-N-[(3S)-2-oxo-5-phenyl-1,3-dihydro-1,4-benzodiazepin-3-yl]pyrazole-4-carboxamide] | 96 nM | 121 min | > 25000 nM | 85.8 min | 119 min
13 | O=C(N[C@H]1N=C(c2ccccc2)c2cccc(F)c2NC1=O)c1cn(C2CCC(F)(F)CC2)nc1-c1ccc(NC2CC2)nc1F [Example 35, 3-[6-(Cyclopropylamino)-2-fluoropyridin-3-yl]-1-(4,4-difluorocyclohexyl)-N-[(3S)-9-fluoro-2-oxo-5-phenyl-1,3-dihydro-1,4-benzodiazepin-3-yl]pyrazole-4-carboxamide] | 60 nM | 181 min | > 25000 nM | 90.9 min | 164 min
14 | CCn1ncc(C(=O)N[C@H]2N=C(c3ccccc3)c3ccccc3NC2=O)c1-c1ncc(NC)cc1F [Example 38, 1-Ethyl-5-(3-fluoro-5-(methylamino)pyridin-2-yl)-N—((S)-2-oxo-5-phenyl-2,3-dihydro-1H-benzo[e][1,4]diazepin-3-yl)-1H-pyrazole-4-carboxamide] | 105 nM | 42 min | > 25000 nM | 48.6 min | 35.2 min
15 | CCNc1cnc(-c2c(C(=O)N[C@H]3N=C(c4ccccc4)c4ccccc4NC3=O)cnn2CC)c(F)c1 [Example 39, 1-Ethyl-5-[5-(ethylamino)-3-fluoropyridin-2-yl]-N-[(3S)-2-oxo-5-phenyl-1,3-dihydro-1,4-benzodiazepin-3-yl]pyrazole-4-carboxamide] | 62 nM | 21.4 min | > 25000 nM | 45.7 min | 62 min
